One data set concerns KCa2 channels. Particulars: literature, cited from earlier work.
A further data set concerns the target KCa3.1 (Homo sapiens, UniProt O15554+P0DP23). Particulars: literature; cited from earlier work.
A further data set addresses T1, KV11.1 (hERG) (Homo sapiens, UniProt Q12809).
T1 construct: host or cells: HEK-293
To be noted: literature; cited from earlier work.

In a further data set the target is KCa2.1 (Homo sapiens, UniProt Q92952). Particulars: literature; cited from earlier work.
The test system of the next data set is KCa2/3 channels. To be noted: literature; read-out: EC50s for activation of KCa2/3 channels; cited from earlier work.
Data set [1] concerns voltage-gated sodium (NaV) channels. Particulars: literature; cited from earlier work.
A further data set deals with dogs. Particulars: intravenous 2 mg/kg, literature; cited from earlier work.
Another data set has as its system mice. Particulars: literature, cited from earlier work.
The conditions of data set [2]: rats; literature; cited from earlier work.
A short description of data set [3]: Solubility for electrophysiology testing. In kind it is physicochemical.

Where two headings read alike, the source gives them in different places.

T1 sequence (Q12809 whole entry): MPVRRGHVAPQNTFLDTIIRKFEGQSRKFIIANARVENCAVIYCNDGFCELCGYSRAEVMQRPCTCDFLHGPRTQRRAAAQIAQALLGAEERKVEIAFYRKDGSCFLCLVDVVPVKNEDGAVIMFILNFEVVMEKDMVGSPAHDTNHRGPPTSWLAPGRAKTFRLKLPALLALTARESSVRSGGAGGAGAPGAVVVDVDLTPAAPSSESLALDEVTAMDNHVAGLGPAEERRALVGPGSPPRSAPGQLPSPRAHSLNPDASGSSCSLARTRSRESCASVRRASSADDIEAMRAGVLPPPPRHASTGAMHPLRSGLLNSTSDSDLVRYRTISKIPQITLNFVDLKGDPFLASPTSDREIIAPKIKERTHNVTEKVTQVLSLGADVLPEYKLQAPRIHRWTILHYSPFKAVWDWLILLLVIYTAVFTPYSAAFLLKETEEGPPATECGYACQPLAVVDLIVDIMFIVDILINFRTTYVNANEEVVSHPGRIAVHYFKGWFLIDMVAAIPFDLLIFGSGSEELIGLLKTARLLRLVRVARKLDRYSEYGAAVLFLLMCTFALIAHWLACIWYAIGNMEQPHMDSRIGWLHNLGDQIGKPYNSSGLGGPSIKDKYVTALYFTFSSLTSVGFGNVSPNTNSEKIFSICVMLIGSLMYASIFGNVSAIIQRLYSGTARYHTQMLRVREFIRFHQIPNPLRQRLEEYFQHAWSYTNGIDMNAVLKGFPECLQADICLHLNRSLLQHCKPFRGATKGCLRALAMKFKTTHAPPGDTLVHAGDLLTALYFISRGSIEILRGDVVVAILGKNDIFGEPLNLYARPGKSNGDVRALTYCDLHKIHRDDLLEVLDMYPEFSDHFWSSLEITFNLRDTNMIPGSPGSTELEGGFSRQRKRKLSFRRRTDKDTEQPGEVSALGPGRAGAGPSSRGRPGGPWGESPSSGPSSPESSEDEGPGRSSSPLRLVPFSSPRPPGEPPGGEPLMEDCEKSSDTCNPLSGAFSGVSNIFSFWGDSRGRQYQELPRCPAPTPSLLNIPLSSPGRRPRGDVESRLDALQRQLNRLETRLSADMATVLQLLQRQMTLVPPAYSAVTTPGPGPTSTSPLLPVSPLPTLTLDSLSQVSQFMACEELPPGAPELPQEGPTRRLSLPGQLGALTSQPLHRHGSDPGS

As to `CCn1c(=O)[nH]c2ccccc21` [EBIO, 1-ethylbenzimidazolin-2-one], in the data set on KCa2 channels (all three KCa2 channels), the EC50 was around 300 µM.

For the compound `O=C1Nc2c(ccc(Cl)c2Cl)C1=NO` [NS309, 6,7-dichloro-1H-indole-2,3-dione 3 oxime], the EC50 was around 0.02 µM on KCa3.1 and around 0.6 µM with KCa2 channels. The “concentration that inhibits KV11.1 (hERG)” value on KV11.1 (hERG) was 1000 nM.

Consider `Cc1cc(C)n(-c2nc(Nc3ccc(Cl)cc3)c3ncn(C)c3n2)n1` [NS13001], for which the “activity on KCa3.1” value on KCa3.1 was “completely inactive”. For the same compound, the “activity on KCa2.1” value on KCa2.1 was “completely inactive”.

Take `Nc1nc2ccc(OC(F)(F)F)cc2s1` [Riluzole]: the EC50 with KCa2/3 channels was 10 to 20 µM. In addition, the “concentrations that inhibit/affect NaV channels” value in data set [1] is 1 to 50 µM.

Regarding `Nc1nc2c(ccc3ccccc32)s1` [SKA-31, naphtho[1,2-d]thiazol-2-ylamine], the “reduction in blood pressure” value with dogs was −30 mmHg. Besides, in the data set with mice (100 mg/kg), the “heart rate” value is given as “significant bradycardia”. Also, in the data set on mice (10-30 mg/kg), the “duration of blood pressure lowering” value is 60 to 90 min and the “lowering of blood pressure” value is around 30 mmHg. Moreover, the half-live in data set [2] is 12 h.

Turning to `Nc1nc2c(cc(Br)c3ccccc32)s1` [SKA-87, 5-Bromooaphtho[1,2-d]thiazol-2-amine], the “solubility” value in data set [3] was “too insoluble to be tested”.
